From US10501518B2 (priority 2013, dated 2019)
One block for each compound: values may come before it. Starred links: 1 amine or outer side, 2 acyl side, 3 side chain; linkers in the order of their positions; H or OH if unused. Non-standard residues stand in square brackets, D forms with d. Residues, ends and D or L forms follow the SMILES beside them. *: point of attachment. NH(1S,2S-2-CONH2-cPent) = NC(=O)[C@H]1CCC[C@@H]1N*; X12 = O=C([C@H]1CCC[C@@H]1N[*:1])[*:2]; X13 = O=C([C@H]1CNC[C@@H]1N[*:1])[*:2]; ACPC(1S,2S) = N[C@H]1CCC[C@@H]1C(=O)*

Tests used:
PTHR = target: T1, PTHR (Homo sapiens, UniProt Q03431); assay: cAMP induction potency, N-terminal modifications and cyclic constraints (Tables 9, 10, 13); assay type: cell-based
T1 construct: expressed in transfected cells
T1 sequence (Q03431 27-593): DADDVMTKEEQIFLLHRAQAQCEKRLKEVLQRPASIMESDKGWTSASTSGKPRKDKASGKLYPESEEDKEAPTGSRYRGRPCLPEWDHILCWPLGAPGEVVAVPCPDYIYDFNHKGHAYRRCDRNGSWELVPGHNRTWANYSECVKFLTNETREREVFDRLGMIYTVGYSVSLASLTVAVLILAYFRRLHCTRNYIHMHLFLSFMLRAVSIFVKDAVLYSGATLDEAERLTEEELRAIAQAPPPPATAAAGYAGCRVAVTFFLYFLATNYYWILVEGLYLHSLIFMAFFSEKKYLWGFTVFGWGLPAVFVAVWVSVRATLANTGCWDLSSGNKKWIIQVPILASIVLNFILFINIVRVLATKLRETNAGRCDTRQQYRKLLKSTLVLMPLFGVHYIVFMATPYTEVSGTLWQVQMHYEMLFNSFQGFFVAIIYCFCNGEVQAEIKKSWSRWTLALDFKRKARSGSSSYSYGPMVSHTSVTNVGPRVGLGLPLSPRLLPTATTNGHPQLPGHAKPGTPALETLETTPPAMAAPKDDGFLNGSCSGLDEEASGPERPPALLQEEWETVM

R^0 form of human PTHR-1 = target: T2, R^0 form of human PTHR-1 (Homo sapiens, UniProt Q03431); assay: Radio-ligand competition binding to R^0 form of human PTHR-1 (COS-7 membranes, 125I-PTH(1-34) tracer, GTPγS); details: compared with PTH(1-34)
T2 construct: expressed in transfected cells; host or cells: COS-7
T2 sequence (Q03431 27-593): T1 sequence (Q03431 27-593)
Text: Data are means (±SEM) of n≥4 experiments, each performed in duplicate.

WT human PTHR-1 = target: T3, WT human PTHR-1 (Homo sapiens, UniProt Q03431); assay: cAMP GloSensor dose-response in GP-2.3 cells expressing human PTHR-1; assay type: cell-based
T3 construct: bioactivity of the resulting compound in full-length hPTHR-1 and a truncated version; expressed in transfected cells
T3 sequence (Q03431 27-593): T1 sequence (Q03431 27-593)
Protocol: FIGS. 8A, 8B, and 8C constitute a series of graphs depicting cAMP responses in GP-2.3 cells expressing wild-type human parathyroid hormone receptor 1 (PTHR-1-WT). […] Data are means (±SEM) of n>4 experiments, each performed in duplicate.
(§1) For cAMP dose-response assays, monolayers of confluent HEK 293 cells were pre-incubated with buffer containing d-luciferin (0.5 mM) in 96 well plates at room temperature until a stable baseline level of luminescence was established (30 min). Varying concentrations of agonist were then added, and the time course of luminescence response was recorded using a Perkin Elmer plate reader following α/β-peptide addition.

WT rat PTHR-1 = target: T4, WT rat PTHR-1 (Rattus norvegicus, UniProt P25961); assay: cAMP GloSensor dose-response in GR-35 cells expressing rat PTHR-1; assay type: cell-based; details: Table 7; GR-35 cells, 12-16 minutes after ligand addition; mean ± SEM
T4 construct: expressed in transfected cells
T4 sequence (P25961 27-591): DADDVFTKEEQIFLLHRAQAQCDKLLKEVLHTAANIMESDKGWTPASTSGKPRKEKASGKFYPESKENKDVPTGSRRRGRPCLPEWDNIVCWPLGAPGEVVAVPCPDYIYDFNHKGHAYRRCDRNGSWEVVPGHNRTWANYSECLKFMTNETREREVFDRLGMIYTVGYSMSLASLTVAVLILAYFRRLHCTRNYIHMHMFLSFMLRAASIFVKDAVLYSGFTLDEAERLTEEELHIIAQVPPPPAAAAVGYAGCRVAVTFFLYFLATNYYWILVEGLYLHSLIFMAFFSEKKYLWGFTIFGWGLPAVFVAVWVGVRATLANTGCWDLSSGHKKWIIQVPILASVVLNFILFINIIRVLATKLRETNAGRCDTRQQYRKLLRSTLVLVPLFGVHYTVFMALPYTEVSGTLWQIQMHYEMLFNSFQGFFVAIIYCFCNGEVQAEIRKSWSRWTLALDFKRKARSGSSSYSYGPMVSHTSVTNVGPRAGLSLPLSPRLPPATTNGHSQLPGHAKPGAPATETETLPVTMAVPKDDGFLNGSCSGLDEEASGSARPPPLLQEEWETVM
Protocol: FIGS. 9A, 9B, and 9C constitute a series of graphs depicting cAMP responses in GR-35 cells expressing rat PTHR-1-WT. […] Data are means (±SEM) of n>4 experiments, each performed in duplicate.
as §1

Fold PTH (PTHR; Table 10): 9.7
Compound: XVUEXQXMHQ^hRAKWLNSMRRVEWLRKKLQDVHNF.-NH2 [M-X1,5,7-D6]

Fold PTH (PTHR; Table 9): 8.7
Compound: CC[C@H](C)[C@H](NC(=O)[C@H](CCC(=O)O)NC(=O)[C@H](CO)NC(=O)[C@@H](NC(=O)[C@H]1CCC[C@@H]1N)C(C)C)C(=O)N[C@@H](CCC(N)=O)C(=O)N[C@H]1CCC[C@@H]1C(=O)N[C@@H](CCSC)C(=O)N[C@@H](Cc1c[nH]cn1)C(=O)N[C@@H](CC(N)=O)C(=O)N[C@@H](CC(C)C)C(=O)NCC(=O)N[C@@H](CCCCN)C(=O)N[C@H]1CCC[C@@H]1C(=O)N[C@@H](CC(C)C)C(=O)N[C@@H](CC(N)=O)C(=O)N[C@@H](CO)C(=O)N[C@H]1CCC[C@@H]1C(=O)N[C@@H](CCC(=O)O)C(=O)N[C@@H](CCCNC(=N)N)C(=O)N[C@H](C(=O)N[C@H]1CNC[C@@H]1C(=O)N[C@@H](Cc1c[nH]c2ccccc12)C(=O)N[C@@H](CC(C)C)C(=O)N[C@@H](CCCNC(=N)N)C(=O)N[C@H]1CNC[C@@H]1C(=O)N[C@@H](CCCCN)C(=O)N[C@@H](CC(C)C)C(=O)N[C@@H](CCC(N)=O)C(=O)N[C@H]1CCC[C@@H]1C(=O)N[C@H](C(=O)N[C@@H](Cc1c[nH]cn1)C(=O)N[C@@H](CC(N)=O)C(=O)N[C@H]1CCC[C@@H]1C(N)=O)C(C)C)C(C)C [FcycD6_ACPC(1,7), XVSEIQXMHNLGKXLNSXERVZWLRZKLQXVHNX-NH2] ({ACPC(1S,2S)}-VSEIQ[X12]MHNLGK[X12]LNS[X12]ERV[X13]WLR[X13]KLQ[X12]VHN-{NH(1S,2S-2-CONH2-cPent)}; N-terminus assumed)

affinity for the R^0 state of hPTHR-1, in words (R^0 form of human PTHR-1): matches PTH(1-34)
cAMP (hPTHR-1) Max (WT human PTHR-1; Table 1, luminescence counts per second relative to PTH(1-34), 12-16 minutes after ligand addition): 1.04
agonist activity at hPTHR-1 (cAMP response), in words (WT human PTHR-1; maximum cAMP response compared with PTH(1-34)): full agonists of hPTHR-1
Compound: CC[C@H](C)[C@H](NC(=O)[C@H](CCC(=O)O)NC(=O)[C@H](CO)NC(=O)[C@@H](NC(=O)[C@@H](N)CO)C(C)C)C(=O)N[C@@H](CCC(N)=O)C(=O)N[C@@H](CC(C)C)C(=O)N[C@@H](CCSC)C(=O)N[C@@H](Cc1c[nH]cn1)C(=O)N[C@@H](CC(N)=O)C(=O)N[C@@H](CC(C)C)C(=O)NCC(=O)N[C@@H](CCCCN)C(=O)N[C@@H](Cc1c[nH]cn1)C(=O)N[C@@H](CC(C)C)C(=O)N[C@@H](CC(N)=O)C(=O)N[C@@H](CO)C(=O)N[C@@H](CCSC)C(=O)N[C@@H](CCC(=O)O)C(=O)N[C@@H](CCCNC(=N)N)C(=O)N[C@H](C(=O)N[C@@H](CCC(=O)O)C(=O)N[C@@H](Cc1c[nH]c2ccccc12)C(=O)N[C@@H](CC(C)C)C(=O)N[C@@H](CCCNC(=N)N)C(=O)N[C@@H](CCCCN)CC(=O)N[C@@H](CCCCN)C(=O)N[C@@H](CC(C)C)C(=O)N[C@@H](CCC(N)=O)C(=O)N[C@@H](CC(=O)O)CC(=O)N[C@H](C(=O)N[C@@H](Cc1c[nH]cn1)C(=O)N[C@@H](CC(N)=O)C(=O)N[C@H](CC(N)=O)Cc1ccccc1)C(C)C)C(C)C [D3]
Max (WT human PTHR-1; Table 6, GP-2.3 cells, 12-16 minutes after ligand addition, mean ± SEM): 226 ± 15 luminescence counts per second × 10^−3
Max (WT rat PTHR-1): 65 ± 62 luminescence counts per second × 10−3
